US7582786B2, “Synthetic catalytic free radical scavengers useful as antioxidants for prevention and therapy of disease” (Eukarion Inc., priority 1996, dated 2009)
Marks after values point to notes of the source that are not given here.

What was measured:
[1] = SOD activity, xanthine/xanthine oxidase with cytochrome C as acceptor (Example 2); format: biochemical; settings: relative to C7 (C7 = 100)
Procedure: Superoxide dismutase (SOD) activity was assayed by following the inhibition of the reduction of an electron acceptor molecule in the presence of the free-radical generating system xanthine/xanthine oxidase (McCord et al. (1973) Superoxide and Superoxide Dismutase in “Oxidases and Related Redox Systems, vol. I, King et al. eds., University Park press, Baltimore, pp. 51-76). The assay mixture consisted of 50 mM sodium phosphate, pH 7.8, 120 μM xanthine, 0.2 units/ml xanthine oxidase, with acceptor molecule and salen manganese compound, as indicated. Assays were conducted at 27±0.2° C. using a water-jacketed cell holder in a Beckman DU7400 spectrophotometer. In most cases, oxidized cytochrome c, at 0.13 mg/ml, was employed as acceptor and its reduction was monitored spectrophotometrically at 550 nm. In some experiments, nitroblue tetrazolium (NBT), at 80 μM, was substituted for cytochrome c as the acceptor. NBT reduction was also monitored at 550 nm. An estimated extinction coefficient for NBT reduction, 20,800 M^−1cm^−1, determined empirically by exhaustive reduction of NBT in the reaction mixture described above, was employed where indicated. […] Conversion of xanthine to urate was calculated using ε290's of […] for urate and 4050 M^−1cm^−1 for xanthine. […] For each compound, at least four different concentrations were tested in duplicate.

[2] = Peroxidase activity, H2O2-dependent oxidation of ABTS (Example 2); format: biochemical; settings: relative to C7 (C7 = 100)
Procedure: Peroxidase activity was assayed by monitoring the hydrogen peroxide-dependent oxidation of 2,2′-azino-bis(3-ethylbenzthiazoline-6) sulfonic acid (ABTS) spectrophotometrically. Standard assay mixtures consisted of 50 mM sodium phosphate, pH 8.1, 0.9% sodium chloride, 0.5 mM ABTS, and H2O2 and salen manganese complex as indicated. Where indicated, 50 mM sodium phosphate buffers of pH 6.0 or pH 7.1 were substituted. Assays were conducted at 27±0.2° C. ABTS oxidation was monitored at 740 or 500 nm to eliminate interference by the salen manganese complexes, many of which absorb in the vicinity of the λmax of oxidized ABTS, and to avoid absorbance values that exceeded the linear range of the spectrophotometer. The amount of oxidized ABTS was estimated using an Δε740 of 20,300 M^−1cm^−1 or an Δε500 of 3400 M^−1cm^−1 calculated based upon the published molar extinction coefficient oat 405 nm (36,800).
(§1) Catalase and peroxidase activities were assayed as described in Example 2. Catalase assays contained 10 μM salen-manganese complex and 10 mM hydrogen peroxide. Peroxidase assays contained 10 μM salen-manganese complex and 0.2 mM hydrogen peroxide. Glucose-glucose oxidase toxicity assays were performed using human dermal fibroblasts as described in Example 2.

[3] = Catalase activity, conversion of H2O2 to oxygen, polarographic oxygen electrode (Example 2); format: biochemical; settings: relative to C7 (C7 = 100)
Procedure: Catalase activity was assayed by monitoring the conversion of H2O2 to oxygen using a Clark-type polarographic oxygen electrode. The apparatus consisted of a Mini Clark Style electrode, a 600 μl Oxygen Uptake Chamber, and a Chemical Microsensor system, all obtained from Diamond General Corporation (Ann Arbor, Mich.). The electrode was calibrated by immersion in nitrogen- or air-equilibrated buffers using a Dual Chamber Calibration Cell (Diamond General,. Corp.). Catalase reaction mixtures consisted of 50 mM sodium phosphate, pH 8.1, 0.9% sodium chloride, and salen manganese complex and H2O2 at the indicated concentrations. The temperature of the water-jacketed reaction chamber, as well as the calibration buffers, was maintained at 25±0.1° C. Data were collected at 1 sec intervals and stored-on a MacIntosh II computer using data acquisition hardware and software by Strawberry Tree, Inc. (Sunnyvale, Calif.). Dissolved oxygen concentrations were calculated as described previously (Del Rio et al. (1977) Anal. Biochem. 80: 409) based on a value of 2.5×10^−4 M oxygen for air-saturated buffer at 25° C. Linearity of the dissolved oxygen measurements within the experimental range was continued by determining the amount of oxygen generated from known quantities of H2O2 during exhaustive treatment with bovine liver catalase. Stock solutions of H2O2 were prepared by diluting a commercial 30% H2O2 solution in water and the H2O2 concentrations in these stocks were determined by absorbance at 240 nm, using a molar extinction coefficient of 44 (Stadtman, E R. et al. (1990) Proc. Natl. Acad. Sci. USA 87: 384). […] In the absence of salen manganese complex, H2O2 alone typically produced an early, relatively slow increase in signal. The slope of this increased signal was not proportional to H2O2 concentration (for example in one experiment, 1 and 10 Mm H2O2 yielded apparent rates of 12 and 14 μM oxygen per min, respectively) and may be due to an electrode artifact. […] Where presented, initial rates were calculated by determining the slope of the linear portion of time dependent plots of oxygen generation, usually comprising the first five seconds of the reaction. Unless otherwise indicated, these were corrected by subtracting the rate obtained with H2O2 alone. Where presented, endpoint oxygen generated was calculated from time-dependent plots, such as those shown in FIG. 14, as the difference between the baseline oxygen concentration immediately prior to substrate addition and the maximal oxygen concentration achieved during the course of the reaction. All reactions subjected to these calculations were run for a sufficient time to ensure that oxygen generation had ceased.
as §1

[4] = system: isolated iron-overloaded rat hearts; assay: Isolated iron-overloaded rat hearts submitted to ischemia and reperfusion (function and electron microscopy)
Procedure: Rats received an intramuscular injection of 0.25 ml of an iron-dextran solution (100 g iron hydroxide, 99 g dextran, water up to 1 l) every third day during a 5-week period to achieve a significant iron overload in cardiac tissue. At the end of this treatment, rats were anesthetized with sodium pentobarbital (40 mg/kg) and heparin (1,000 IU/kg) was administered via a femoral vein. Hearts were then removed and rapidly perfused through the aorta according to the technique described by Langendorff [Langendorff, O., Pflügers Arch. 61: 291, 1895] at a constant flow rate of 11 ml/minute. The perfusion fluid was a modified Krebs-Henseleit buffer containing (in mmol/l): NaCl 118, KCl 5.9, NaHCO3 25, MgCl2 1.2, NaH2PO4 0.6, CaCl2 2.4, Glucose […]. pH was maintained at 7.4±0.05 when the perfusion medium was saturated with O2—CO2 (95%-5%) at 37° C. The perfusion apparatus was fully thermostated such that the temperature of the perfusion medium was 37.0±0.5° C. when it reached the aorta. An ultra-thin balloon was inserted in the left ventricle immediately after the initiation of aortic perfusion and was inflated so as to obtain an end-diastolic pressure of 5 mm Hg. A 15 minute stabilization period was initiated immediately following balloon placement. At the end of this period, systolic and diastolic ventricular pressures and heart beat rate (HR) were recorded through a pressure transducer linked to the ventricular balloon. Left Ventricular Developed Pressure (LVDP) was calculated by the difference between systolic and diastolic pressure and the product HR×LVDP was taken as an index of oxygen consumption. Hearts were then subjected to a 15 minute total global normothermic ischemia, followed by 15 minutes of reperfusion with the perfusion medium used initially. During this 15 minute reperfusion, heart rate, and diastolic and systolic pressures were monitored. Early ventricular fibrillations were analyzed 1 min. after the start of the reperfusion.
Three experimental groups were studied.
After the 15 minute reperfusion, 3 hearts in each group were prepared for electron microscopy by perfusion with 2.5% glutaraldehyde. Ultra-thin slices (500-600 Å thickness) were examined.
Mitochondria were classified into Type A (normal), Type B (swollen, unbroken), and Type C (ruptured membranes). Sarcomeres were classified into Type A (normal) and Type B (contacted and/or necrosis). The results are expressed as percentages.

[5] = 1 minute after reperfusion, DMTU 10 mM, C7 50 μM
[6] = 15 minutes after reperfusion, DMTU 10 mM, C7 50 μM
[7] = Before ischemia, DMTU 10 mM, C7 50 μM
[8] = electron microscopy after 15 minute reperfusion

| Compound | Catalase endpt. [3] | Catalase rate [3] | Peroxidase [2] | further results |
| --- | --- | --- | --- | --- |
| COc1cc(OC)c2c(c1)[O][Mn]([Cl])[O]c1cc(OC)cc(OC)c1C=NCCN=C2 [Compound C39] | – | – | – | SOD [1]: 27 |
| [Cl][Mn]1[O]c2ccccc2C=Nc2cccnc2N=Cc2ccccc2[O]1 [Compound C44] | 493 | 272 | 48 | – |
| COc1cccc2c1[O][Mn]([Cl])[O]c1c(cccc1OC)C=Nc1ncccc1N=C2 [Compound C46] | 830 | 465 | 20 | – |
| CC(=O)[O][Mn]1[O]c2ccccc2C=Nc2ccccc2N=Cc2ccccc2[O]1 [Compound C47] | 398 | 343 | 101 | – |
| COc1cccc2c1[O][Mn]([O]C(C)=O)[O]c1c(cccc1OC)C=NC1CCCCC1N=C2 (centres unmarked) [Compound C50] | 287 | 174 | 170 | – |
| [F][Mn]1[O]c2ccccc2C=NCCN=Cc2ccccc2[O]1 [Compound C54] | – | – | 116 | SOD [1]: 75 |
| [Br][Mn]1[O]c2ccccc2C=NCCN=Cc2ccccc2[O]1 [Compound C55] | – | – | 101 | SOD [1]: 178 |
| [Cl][Fe]1[O]c2ccccc2C=NCCN=Cc2ccccc2[O]1 [Compound C57] | – | – | – | SOD [1]: 33 |
| C1=NCCN=Cc2ccccc2[O][Ni][O]c2ccccc21 [Compound C59] | – | – | 0 | – |
| COc1cc(Br)c2c(c1)C=NCCN=Cc1cc(OC)cc(Br)c1[O][Mn]([O]C(C)=O)[O]2 [Compound C69] | – | – | 167 | – |
| CC(=O)[O][Mn]1[O]c2c(O)cccc2C=NCCN=Cc2cccc(O)c2[O]1 [Compound C71] | – | – | – | SOD [1]: 75 |
| Oc1ccc2c(c1)[O][Mn]([Cl])[O]c1cc(O)ccc1C=NCCN=C2 [Compound C72] | – | – | – | SOD [1]: 58 |
| CC(=O)[O][Mn]1[O]c2cc(O)ccc2C=NCCN=Cc2ccc(O)cc2[O]1 [Compound C73] | – | – | – | SOD [1]: 61 |
| CC(=O)[O][Mn]1[O]c2ccc(O)cc2C=NCCN=Cc2cc(O)ccc2[O]1 [Compound C74] | – | – | – | SOD [1]: 65 |
| CC(=O)[O][Mn]1[O]c2c(F)cccc2C=Nc2cccnc2N=Cc2cccc(F)c2[O]1 [Compound C75] | – | – | 0 | – |
| CC(=O)[O][Mn]1[O]c2ccc(Cl)cc2C=Nc2cccnc2N=Cc2cc(Cl)ccc2[O]1 [Compound C77] | – | – | 0 | – |
| COc1ccc2c(c1)C(C)=NCCN=C(C)c1cc(OC)ccc1[O][Mn]([O]C(C)=O)[O]2 [Compound C87] | – | – | 20 | – |
| COc1ccc2c(c1)[O][Mn]([O]C(C)=O)[O]c1cc(OC)ccc1C(C)=NCCN=C2C [Compound C88] | – | – | 0 | – |
| COc1ccc2c(c1)[O][Mn]([O]C(C)=O)[O]c1cc(OC)ccc1C(c1ccccc1)=NCCN=C2c1ccccc1 [Compound C89] | – | – | 0 | – |
| CNC(=S)NC [DMTU, dimethylthiourea] | – | – | – | DP [4, 5]: 37.2 ± 10.0 mm Hg; HR [4, 5]: 91 ± 10 beats/min; HR × LVDP [4, 5]: 3.5 ± 1.2 ×10.3; SP [4, 5]: 62 ± 9 mm Hg; VF, number of hearts exhibiting episodes of ventricular fibrillation [4, 5]: 3/8; DP [4, 6]: 27.8 ± 9.4 mm Hg; HR [4, 6]: 226 ± 18 beats/min; HR × LVDP [4, 6]: 9.4 ± 2.0 ×10.3; SP [4, 6]: 58 ± 6 mm Hg; DP [4, 7]: 4.7 ± 0.3 mm Hg; HR [4, 7]: 280 ± 10 beats/min; HR × LVDP [4, 7]: 24.1 ± 0.6 ×10.3; SP [4, 7]: 97 ± 4 mm Hg; Mitochondria Type A (normal) [4, 8]: 14.3* %; Mitochondria Type B (swollen, unbroken) [4, 8]: 19.5%; Mitochondria Type C (ruptured membranes) [4, 8]: 66.2%; Sarcomeres Type A (normal) [4, 8]: 13.7+ %; Sarcomeres Type B (contacted and/or necrosis) [4, 8]: 86.3+ % |

More lines, main results first:

| Catalase endpt. [3] | Catalase rate [3] | Compound | Peroxidase [2] | further results |
| --- | --- | --- | --- | --- |
| 33 | 73 | CC(=O)[O][Mn]1[O]c2ccccc2C=NCC(C)(C)CN=Cc2ccccc2[O]1 [Compound C52] | 0 | – |
| 159 | 427 | COc1cc(Br)c2c(c1)C=Nc1ccccc1N=Cc1cc(OC)cc(Br)c1[O][Mn]([O]C(C)=O)[O]2 [Compound C76] | 23 | – |
| 22 | 42 | CC(=O)[O][Mn]1[O]c2ccc3ccccc3c2C=Nc2ccccc2N=Cc2c(ccc3ccccc23)[O]1 [Compound C79] | 0 | – |
| 24 | 34 | COc1cccc2c1[O][Mn]([O]C(C)=O)[O]c1c(cccc1OC)C=NCCCN=C2 [Compound C80] | 0 | – |
| 870 | 493 | COc1cccc2c1[O][Mn]([Cl])[O]c1c(cccc1OC)C=Nc1ccccc1N=C2 [Compound C81] | 83 | – |
| 756 | 345 | CC(=O)[O][Mn]1[O]c2c3cccc2OCCOCCOCCOc2cccc(c2[O]1)C=Nc1ccccc1N=C3 [Compound C82] | 59 | – |
| 52 | 42 | CC(=O)[O][Mn]1[O]c2ccccc2CNCCNCc2ccccc2[O]1 [Compound C83] | 74 | – |
| 51 | 31 | [Cl][Mn]1[O]c2ccccc2CNCCNCc2ccccc2[O]1 [Compound C84] | 77 | – |
